Source: patent US12382888B2, “Compositions and methods for modulating immunity in plants” (Boyce Thompson Institute for Plant Research, Inc., priority 2013, dated 2025)
“Also recorded” adds a separate entry of the source. Where two headings read alike, the source gives them in different places.

Key:
[1] = test system: Phytophthora infestans (US22); assay type: in vivo; settings: for resistance to US22 P. infestans: at the concentration tested; for resistance to P. infestans: root treatment, at the concentrations tested
[2] = test system: Phytophthora infestans (US22); assay type: in vivo

CC1O[C@@H](O[C@H](C)CCCCCCCCC(=O)NCCO)C(O)C[C@H]1O (stereo partly shown) [easc #18]
resistance to virulent US22 P. infestans (lesion size 5 dpi, sporangia 6 dpi) ([1]; in vivo): enhanced resistance

CC1O[C@@H](O[C@H](C)CCCCCCC(=O)O)C(O)C[C@H]1O (stereo partly shown) [ascr #10]
resistance to US22 P. infestans ([1]; tomato cv. M82): not

CC1O[C@@H](OCCCCC(=O)O)C(O)C[C@H]1O (stereo partly shown) [oscr #9]
P. infestans resistance in tomato ([1]; in vivo): −
resistance to US22 P. infestans ([1]; tomato cv. M82): not
resistance to P. infestans ([1]; tomato cv. M82): neither ascr #3 nor oscr #9 affected resistance

CC1O[C@@H](O[C@@H](C)CCCCCCCCC(=O)O)C(O)C[C@H]1O (stereo in doubt) [ascr #18, (10R)-(3′R,5′R-dihydroxy-6′S-methyl-(2H)-tetrahydropyran-2-yloxy)-undecanoic Acid]
P. infestans resistance in tomato ([1]; tomato (M82), root pretreatment with 0.01 or 1 μM ascaroside): +
resistance to P. infestans ([1]; tomato cv. M82): enhanced resistance
protection against US22 P. infestans (sporangia number, lesion size) ([1]; tomato cv. M82, roots pretreated 48 hours, 1 nM and 10 nM): strong protection
resistance to virulent US22 P. infestans ([1]; tomato cv. M82 and Rio Grande, root immersion 0.01 μM 48 hours before inoculation): enhances resistance
resistance to virulent US22 P. infestans (lesion size 5 dpi, sporangia 6 dpi) ([1]; tomato cv. Rio Grande, root immersion 0.01 μM 48 hours before): enhanced resistance
enhancement of resistance ([1]; tomato, 100 nM): reduced or lost
ascr #18 concentrations of maximal protection/resistance ([1]; tomato, P. infestans US22): 1 to 10 nM
concentration that enhanced resistance (as little as) ([1]; tomato, P. infestans US22): 10 pM
protection against P. infestans ([1]; tomato, higher concentrations): decreased
protection against virulent P. infestans ([2]; potato cv. Desiré, Eva or Yukon Gold, 10 nM by root immersion or foliar spray 48 hours prior): provided protection; also recorded: protects against P. infestans-induced late blight
resistance to virulent US22 P. infestans (lesion size 5 dpi) ([2]; potato cv. Désirée, root immersion 0.01 μM 48 hours before): enhanced resistance

CC1O[C@@H](O[C@H](C)CCCC/C=C/C(=O)O)C(O)C[C@H]1O (stereo partly shown) [ascr #3]
resistance of M82 against P. infestans ([1]; 0.01 μM): did not have a significant effect
P. infestans resistance in tomato ([1]; in vivo): −
resistance to P. infestans ([1]; tomato cv. M82): neither ascr #3 nor oscr #9 affected resistance

C[C@H](CCC(=O)O)O[C@@H]1O[C@@H](C)[C@H](O)C[C@H]1O [ascr #9]
P. infestans resistance in tomato ([1]; in vivo): +
resistance to US22 P. infestans (lesion size, sporangia number) ([1]; tomato cv. M82, root immersion 1 μM 48 hours before, 7 dpi): enhances resistance
resistance to P. infestans ([1]; tomato cv. M82): enhanced resistance
